Source: ChEMBL document CHEMBL5528016, “Design, synthesis and evaluation of novel deferasirox derivatives with high antifungal potency in vitro and in vivo” (Eur J Med Chem, 2024)
Converted amounts (≈) assume the structure as drawn.

Experiments:
Cryptococcus neoformans [1] = experiment: Antifungal activity against Cryptococcus neoformans H99 assessed as reduction in fungal growth incubated for 72 hrs by broth microdilution method; format: functional
Candida parapsilosis = experiment: Antifungal activity against Candida parapsilosis ATCC 22019 assessed as reduction in fungal growth incubated for 72 hrs by broth microdilution method; format: functional; details: Lodderomyces parapsilosis
Nakaseomyces glabratus [2] = experiment: Antifungal activity against Candida glabrata 537 assessed as reduction in fungal growth incubated for 72 hrs by broth microdilution method; format: functional
Candida tropicalis = experiment: Antifungal activity against Candida tropicalis 2718 assessed as reduction in fungal growth incubated for 72 hrs by broth microdilution method; format: functional
Candida albicans = experiment: Antifungal activity against Candida albicans SC5314 assessed as reduction in fungal growth incubated for 72 hrs by broth microdilution method; format: functional
Pichia kudriavzevii = experiment: Antifungal activity against Pichia kudriavzevii 4946 assessed as reduction in fungal growth incubated for 72 hrs by broth microdilution method; format: functional
[Candida] auris = Antifungal activity against Candida auris D12 assessed as reduction in fungal growth incubated for 72 hrs by broth microdilution method; format: functional; details: Candidozyma auris
Nakaseomyces glabratus [3] = experiment: Antifungal activity against Candida glabrata Y10-15 assessed as reduction in fungal growth incubated for 48 hrs by broth microdilution method; format: functional
[4] = Antifungal activity against Cryptococcus gattii VGI SCZ20031 assessed as reduction in fungal growth incubated for 72 hrs by broth microdilution method; format: functional
Cryptococcus neoformans [5] = experiment: Antifungal activity against Cryptococcus neoformans 444 assessed as reduction in fungal growth incubated for 72 hrs by broth microdilution method; format: functional
[6] = Antifungal activity against Cryptococcus gattii VGI SCZ20024 assessed as reduction in fungal growth incubated for 72 hrs by broth microdilution method; format: functional
Nakaseomyces glabratus [7] = experiment: Antifungal activity against Candida glabrata 337 assessed as reduction in fungal growth incubated for 48 hrs by broth microdilution method; format: functional
[8] = Antifungal activity against Cryptococcus gattii VGI WM179 assessed as reduction in fungal growth incubated for 72 hrs by broth microdilution method; format: functional
[9] = Antifungal activity against Cryptococcus gattii VGI E566 assessed as reduction in fungal growth incubated for 72 hrs by broth microdilution method; format: functional
Nakaseomyces glabratus [10] = experiment: Antifungal activity against Candida glabrata 203 assessed as reduction in fungal growth incubated for 48 hrs by broth microdilution method; format: functional
Nakaseomyces glabratus [11] = experiment: Antifungal activity against Candida glabrata YC1-34 assessed as reduction in fungal growth incubated for 48 hrs by broth microdilution method; format: functional
[12] = Antifungal activity against Cryptococcus gattii VGI WM178 assessed as reduction in fungal growth incubated for 72 hrs by broth microdilution method; format: functional
Cryptococcus neoformans [13] = experiment: Antifungal activity against Cryptococcus neoformans HN1 assessed as reduction in fungal growth incubated for 72 hrs by broth microdilution method; format: functional
Cryptococcus neoformans [14] = experiment: Antifungal activity against Cryptococcus neoformans 20 assessed as reduction in fungal growth incubated for 72 hrs by broth microdilution method; format: functional
Cryptococcus neoformans [15] = experiment: Antifungal activity against Cryptococcus neoformans HN15 assessed as reduction in fungal growth incubated for 72 hrs by broth microdilution method; format: functional
Erythrocyte = experiment: Hemolytic activity in rabbit Red blood cell at 64 ug/ml; format: toxicity, cell-based, Oryctolagus cuniculus; details: dose 64 µg/ml
Cryptococcus neoformans [16] = experiment: Antifungal activity against Cryptococcus neoformans BJ3 assessed as reduction in fungal growth incubated for 72 hrs by broth microdilution method; format: functional

C[N+]1(CCNC(=O)c2ccc(-n3nc(-c4ccccc4O)nc3-c3ccccc3O)cc2)CCOCC1.[I-]
MIC (Cryptococcus neoformans [1]): 4 µg/mL

O=C(NCCOc1ccccn1)c1ccc(-n2nc(-c3ccccc3O)nc2-c2ccccc2O)cc1
MIC (Cryptococcus neoformans [1]): 4 µg/mL (≈ 8.1 µM)

O=C(NCCN1CCC(F)(F)CC1)c1ccc(-n2nc(-c3ccccc3O)nc2-c2ccccc2O)cc1
MIC (Cryptococcus neoformans [1]): 1 µg/mL (≈ 1.92 µM)

O=C(NCC(O)c1ccccc1)c1ccc(-n2nc(-c3ccccc3O)nc2-c2ccccc2O)cc1 (stereo not drawn)
MIC (Cryptococcus neoformans [1]): 4 µg/mL (≈ 8.12 µM)

CC(C)(O)CNC(=O)c1ccc(-n2nc(-c3ccccc3O)nc2-c2ccccc2O)cc1
MIC (Cryptococcus neoformans [1]): 2 µg/mL (≈ 4.5 µM)

O=C(NCCC1CCOCC1)c1ccc(-n2nc(-c3ccccc3O)nc2-c2ccccc2O)cc1
MIC (Candida parapsilosis): 32 µg/mL (≈ 66 µM) | MIC (Nakaseomyces glabratus [2]): < 0.125 µg/mL | MIC (Candida tropicalis): 1 µg/mL (≈ 2.06 µM) | MIC (Cryptococcus neoformans [1]): 0.25 µg/mL (≈ 0.516 µM) | MIC (Candida albicans): 32 µg/mL (≈ 66 µM) | MIC (Pichia kudriavzevii): 16 µg/mL (≈ 33 µM) | MIC ([Candida] auris): > 64 µg/mL

O=C(Nc1ccccc1)c1ccc(-n2nc(-c3ccccc3O)nc2-c2ccccc2O)cc1
MIC (Cryptococcus neoformans [1]): 4 µg/mL (≈ 8.92 µM)

O=C(NC1CCS(=O)(=O)CC1)c1ccc(-n2nc(-c3ccccc3O)nc2-c2ccccc2O)cc1
MIC (Cryptococcus neoformans [1]): 4 µg/mL (≈ 7.93 µM)

O=C(NCCNc1ncccn1)c1ccc(-n2nc(-c3ccccc3O)nc2-c2ccccc2O)cc1
MIC (Candida parapsilosis): > 64 µg/mL | MIC (Nakaseomyces glabratus [2]): 1 µg/mL (≈ 2.03 µM) | MIC (Candida tropicalis): 8 µg/mL (≈ 16.2 µM) | MIC (Cryptococcus neoformans [1]): 0.5 µg/mL (≈ 1.01 µM) | MIC (Candida albicans): 32 µg/mL (≈ 64.8 µM) | MIC (Pichia kudriavzevii): 16 µg/mL (≈ 32.4 µM) | MIC ([Candida] auris): > 64 µg/mL

O=C1C[C@H](NC(=O)c2ccc(-n3nc(-c4ccccc4O)nc3-c3ccccc3O)cc2)CO1
MIC (Cryptococcus neoformans [1]): > 64 µg/mL

O=C(NCC(=O)N1CCOCC1)c1ccc(-n2nc(-c3ccccc3O)nc2-c2ccccc2O)cc1
MIC (Cryptococcus neoformans [1]): 1 µg/mL (≈ 2 µM)

CN1CCC(CNC(=O)c2ccc(-n3nc(-c4ccccc4O)nc3-c3ccccc3O)cc2)CC1
MIC (Cryptococcus neoformans [1]): 4 µg/mL (≈ 8.27 µM)

O=C(NCCc1ccccc1)c1ccc(-n2nc(-c3ccccc3O)nc2-c2ccccc2O)cc1
MIC (Cryptococcus neoformans [1]): 8 µg/mL (≈ 16.8 µM)

O=C(NCCCN1CCOCC1)c1cccc(-n2nc(-c3ccccc3O)nc2-c2ccccc2O)c1
MIC (Cryptococcus neoformans [1]): 2 µg/mL (≈ 4 µM)

COCCCNC(=O)c1ccc(-n2nc(-c3ccccc3O)nc2-c2ccccc2O)cc1
MIC (Cryptococcus neoformans [1]): 4 µg/mL (≈ 9 µM)

CN(C)CCNC(=O)c1ccc(-n2nc(-c3ccccc3O)nc2-c2ccccc2O)cc1
MIC (Cryptococcus neoformans [1]): 4 µg/mL (≈ 9.02 µM)

O=C(NCc1ccco1)c1ccc(-n2nc(-c3ccccc3O)nc2-c2ccccc2O)cc1
MIC (Cryptococcus neoformans [1]): 4 µg/mL (≈ 8.84 µM)

O=C(NCCCC(F)(F)F)c1ccc(-n2nc(-c3ccccc3O)nc2-c2ccccc2O)cc1
MIC (Cryptococcus neoformans [1]): 8 µg/mL (≈ 16.6 µM)

CCOCCNC(=O)c1ccc(-n2nc(-c3ccccc3O)nc2-c2ccccc2O)cc1
MIC (Cryptococcus neoformans [1]): 1 µg/mL (≈ 2.25 µM)

CCCCNC(=O)c1ccc(-n2nc(-c3ccccc3O)nc2-c2ccccc2O)cc1
MIC (Cryptococcus neoformans [1]): 4 µg/mL (≈ 9.34 µM)

O=C1CC(NC(=O)c2ccc(-n3nc(-c4ccccc4O)nc3-c3ccccc3O)cc2)CN1 (stereo not drawn)
MIC (Cryptococcus neoformans [1]): 4 µg/mL (≈ 8.78 µM)

O=C(NCC1CCS(=O)(=O)C1)c1ccc(-n2nc(-c3ccccc3O)nc2-c2ccccc2O)cc1 (stereo not drawn)
MIC (Cryptococcus neoformans [1]): 8 µg/mL (≈ 15.9 µM)

CN1CCN(CCNC(=O)c2ccc(-n3nc(-c4ccccc4O)nc3-c3ccccc3O)cc2)CC1
MIC (Cryptococcus neoformans [1]): 1 µg/mL (≈ 2.01 µM)

O=C(NCc1ccncc1)c1ccc(-n2nc(-c3ccccc3O)nc2-c2ccccc2O)cc1
MIC (Cryptococcus neoformans [1]): 4 µg/mL (≈ 8.63 µM)

OC(Cn1cncn1)(Cn1cncn1)c1ccc(F)cc1F [FLUCONAZOLE]
MIC (Nakaseomyces glabratus [3]): 4 µg/mL (≈ 13.1 µM) | MIC [4]: 4 µg/mL (≈ 13.1 µM) | MIC (Cryptococcus neoformans [5]): 16 µg/mL (≈ 52.2 µM) | MIC [6]: 4 µg/mL (≈ 13.1 µM) | MIC (Nakaseomyces glabratus [7]): 2 µg/mL (≈ 6.53 µM) | MIC [8]: 16 µg/mL (≈ 52.2 µM) | MIC (Candida parapsilosis): 1 µg/mL (≈ 3.27 µM) | MIC (Nakaseomyces glabratus [2]): 0.25 µg/mL (≈ 0.816 µM) | MIC [9]: 32 µg/mL (≈ 104 µM) | MIC (Nakaseomyces glabratus [10]): > 64 µg/mL | MIC (Candida tropicalis): < 0.125 µg/mL | MIC (Nakaseomyces glabratus [11]): 2 µg/mL (≈ 6.53 µM) | MIC [12]: 16 µg/mL (≈ 52.2 µM) | MIC (Candida albicans): 0.125 µg/mL (≈ 0.408 µM) | MIC (Cryptococcus neoformans [13]): 2 µg/mL (≈ 6.53 µM) | MIC (Cryptococcus neoformans [14]): 8 µg/mL (≈ 26.1 µM) | MIC (Pichia kudriavzevii): 16 µg/mL (≈ 52.2 µM) | MIC (Cryptococcus neoformans [15]): 4 µg/mL (≈ 13.1 µM) | MIC ([Candida] auris): > 64 µg/mL | Activity (Erythrocyte): Non-Toxic | MIC (Cryptococcus neoformans [16]): 8 µg/mL (≈ 26.1 µM)

O=C1C[C@@H](NC(=O)c2ccc(-n3nc(-c4ccccc4O)nc3-c3ccccc3O)cc2)CO1
MIC (Cryptococcus neoformans [1]): > 64 µg/mL

O=C(NNCc1ccccc1)c1ccc(-n2nc(-c3ccccc3O)nc2-c2ccccc2O)cc1
MIC (Cryptococcus neoformans [1]): 8 µg/mL (≈ 16.8 µM)

CNC(=O)c1ccc(-n2nc(-c3ccccc3O)nc2-c2ccccc2O)cc1
MIC (Cryptococcus neoformans [1]): 1 µg/mL (≈ 2.59 µM)

CS(=O)(=O)CCNC(=O)c1ccc(-n2nc(-c3ccccc3O)nc2-c2ccccc2O)cc1
MIC (Cryptococcus neoformans [1]): 1 µg/mL (≈ 2.09 µM)

CN1CCOC(CNC(=O)c2ccc(-n3nc(-c4ccccc4O)nc3-c3ccccc3O)cc2)C1 (stereo not drawn)
MIC (Candida parapsilosis): 32 µg/mL (≈ 65.9 µM) | MIC (Nakaseomyces glabratus [2]): < 0.125 µg/mL | MIC (Candida tropicalis): 1 µg/mL (≈ 2.06 µM) | MIC (Cryptococcus neoformans [1]): 0.5 µg/mL (≈ 1.03 µM) | MIC (Candida albicans): 2 µg/mL (≈ 4.12 µM) | MIC (Pichia kudriavzevii): 4 µg/mL (≈ 8.24 µM) | MIC ([Candida] auris): > 64 µg/mL
